# Test system: patients with advanced solid tumors
# Assay: Phase Ia safety, tolerability, DLT/MTD (TRAEs graded by NCI-CTCAE v4.03)
# Format: in vivo
# From the text: This is a phase I clinical study (ClinicalTrials.gov identifier: NCT03544905), including a phase Ia study of oral CYH33 monotherapy in patients with advanced solid tumors, and a phase Ib study of oral CYH33 monotherapy focused on several specific tumors. […] The phase Ia study included dose-escalation stage and dose-expansion stage. […] The secondary outcomes also included evaluation of changes in PD biomarkers in response to CYH33 treatment (including proteomics of blood specimens at baseline and during treatment, immunocyte subpopulation ratios and molecular markers, cell free DNA in peripheral blood, and blood glucose). However, in compliance with the local human genetic resource regulations and procedures, peripheral blood samples were not obtained for PD biomarker analysis, therefore, only fasting blood glucose was obtained and used as a PD biomarker for CYH33 treatment. The exploratory objective was the relationship between the efficacy of CYH33 treatment and tumor biomarker status.
# An accelerated titration design (ATD) and an mTPI-2 design were adopted to guide toxicity monitoring and dose escalation. The target DLT rate was 30%, with the acceptable toxicity probability interval of (0.25, 0.35). For the first two preset doses of 1 mg and 5 mg CYH33 in the ATD phase, if there were no grade ≥2 TRAEs during the DLT observation period, 100% dose escalation was allowed in the subsequent dose group. After entering the mTPI-2 phase, the SMC guidance was followed to determine the dose level, dosing frequency, and number of subjects in the next dose group, based on the previously obtained safety and PK data for that dose group. If necessary, it was permitted to add an additional dose level between two explored dose levels for further investigation.
# During the phase Ia study, the safe and probably effective dose will be delivered to the expansion cohort to further investigate the safety, tolerability and efficacy of this dose level, while the dose escalation study can be continued simultaneously. If necessary, it is permitted to insert a new dose level between two explored dose levels for exploration. The subjects to be enrolled in the expansion cohort are patients with advanced solid tumors with PIK3CA gene mutations. When there are two or more dose groups at dose expansion simultaneously, the allocation ratio of the number of subjects in each dose group should be as close as possible to the ratio of ORR in each dose group. In principle, when the cumulative ORR at a certain dose level is <10%, the number of subjects in this dose group will be determined by the SMC. A total of approximately 60 patients are expected to be enrolled in the whole phase Ia study.
# The secondary endpoints included preliminary efficacy assessments based on ORR, PFS, DoR, DCR, and clinical benefit rate, assessed per RECIST 1.1,PK parameters for CYH33 and its metabolite I27, and changes in PD biomarkers in response to CYH33 treatment.
smiles,measurement,setting,value
"COC(=O)Nc1cc(C(F)(F)F)c(-c2nc(N3CCOCC3)c3cc(CN4CCN(S(C)(=O)=O)CC4)cn3n2)cn1 [CYH33, methyl (5-(6-((4-(methylsulfonyl)piperazin-1-yl)methyl)−4-morpholinopyrrolo[2,1-f][1,2,4]triazin-2-yl)−4-(trifluoromethyl)pyridin-2-yl)carbamate]","Blood glucose increased, Grade ≥ 3 TRAE","30 mg QD, n = 12",0 n (%)
same,"Decreased appetite, Grade ≥ 3 TRAE","30 mg QD, n = 12",0 n (%)
same,"Decreased appetite, all-grade TRAE","30 mg QD, n = 12",4 (33.3) n (%)
same,"Diabetic ketosis, Grade ≥ 3 TRAE","30 mg QD, n = 12",1 (8.3) n (%)
same,"Diarrhea, Grade ≥ 3 TRAE","30 mg QD, n = 12",0 n (%)
same,"Diarrhea, all-grade TRAE","30 mg QD, n = 12",2 (16.7) n (%)
same,"Dizziness, Grade ≥ 3 TRAE","30 mg QD, n = 12",0 n (%)
same,"Electrocardiogram QT prolonged, Grade ≥ 3 TRAE","30 mg QD, n = 12",0 n (%)
same,"Face oedema, Grade ≥ 3 TRAE","30 mg QD, n = 12",0 n (%)
same,"Facial edema, all-grade TRAE","30 mg QD, n = 12",4 (33.3) n (%)
same,"Fatigue, Grade ≥ 3 TRAE","30 mg QD, n = 12",0 n (%)
same,"Fatigue, all-grade TRAE","30 mg QD, n = 12",2 (16.7) n (%)
same,"Generalized oedema, Grade ≥ 3 TRAE","30 mg QD, n = 12",1 (8.3) n (%)
same,Grade ≥ 3 TRAEs in all patients,"30 mg QD, n = 12",7 (58.3) n (%)
same,"Hyperglycemia, Grade ≥ 3 TRAE","30 mg QD, n = 12",7 (58.3) n (%)
same,"Hyperglycemia, all-grade TRAE","30 mg QD, n = 12",11 (91.7) n (%)
same,"Hyponatremia, all-grade TRAE","30 mg QD, n = 12",4 (33.3) n (%)
same,"Mouth ulceration, Grade ≥ 3 TRAE","30 mg QD, n = 12",0 n (%)
same,"Nausea, Grade ≥ 3 TRAE","30 mg QD, n = 12",0 n (%)
same,"Nausea, all-grade TRAE","30 mg QD, n = 12",6 (50.0) n (%)
same,"Peripheral edema, Grade ≥ 3 TRAE","30 mg QD, n = 12",0 n (%)
same,"Peripheral edema, all-grade TRAE","30 mg QD, n = 12",4 (33.3) n (%)
same,"Rash, Grade ≥ 3 TRAE","30 mg QD, n = 12",0 n (%)
same,"Rash, all-grade TRAE","30 mg QD, n = 12",2 (16.7) n (%)
same,TRAEs leading to death,"30 mg QD, n = 12",0 n (%)
same,TRAEs leading to dose discontinuation,"30 mg QD, n = 12",1 (8.3) n (%)
same,TRAEs leading to dose interruption,"30 mg QD, n = 12",10 (83.3) n (%)
same,TRAEs leading to dose reduction,"30 mg QD, n = 12",0 n (%)
same,TRAEs occurring in ≥ 10% of patients,"30 mg QD, n = 12",12 (100) n (%)
same,Treatment-related serious adverse events,"30 mg QD, n = 12",1 (8.3) n (%)
same,"Vomiting, all-grade TRAE","30 mg QD, n = 12",3 (25.0) n (%)
same,"Weight loss, all-grade TRAE","30 mg QD, n = 12",4 (33.3) n (%)
same,"White blood cell count decreased, Grade ≥ 3 TRAE","30 mg QD, n = 12",0 n (%)
same,"Blood glucose increased, Grade ≥ 3 TRAE","40 mg QD, n = 24",0 n (%)
same,"Decreased appetite, Grade ≥ 3 TRAE","40 mg QD, n = 24",1 (4.2) n (%)
same,"Decreased appetite, all-grade TRAE","40 mg QD, n = 24",12 (50.0) n (%)
same,"Diabetic ketosis, Grade ≥ 3 TRAE","40 mg QD, n = 24",0 n (%)
same,"Diarrhea, Grade ≥ 3 TRAE","40 mg QD, n = 24",1 (4.2) n (%)
same,"Diarrhea, all-grade TRAE","40 mg QD, n = 24",7 (29.2) n (%)
same,"Dizziness, Grade ≥ 3 TRAE","40 mg QD, n = 24",1 (4.2) n (%)
same,"Electrocardiogram QT prolonged, Grade ≥ 3 TRAE","40 mg QD, n = 24",0 n (%)
same,"Face oedema, Grade ≥ 3 TRAE","40 mg QD, n = 24",1 (4.2) n (%)
same,"Facial edema, all-grade TRAE","40 mg QD, n = 24",4 (16.7) n (%)
same,"Fatigue, Grade ≥ 3 TRAE","40 mg QD, n = 24",1 (4.2) n (%)
same,"Fatigue, all-grade TRAE","40 mg QD, n = 24",6 (25.0) n (%)
same,"Generalized oedema, Grade ≥ 3 TRAE","40 mg QD, n = 24",0 n (%)
same,Grade ≥ 3 TRAEs in all patients,"40 mg QD, n = 24",19 (79.2) n (%)
same,"Hyperglycemia, Grade ≥ 3 TRAE","40 mg QD, n = 24",17 (70.8) n (%)
same,"Hyperglycemia, all-grade TRAE","40 mg QD, n = 24",23 (95.8) n (%)
same,"Hyponatremia, all-grade TRAE","40 mg QD, n = 24",2 (8.3) n (%)
same,"Mouth ulceration, Grade ≥ 3 TRAE","40 mg QD, n = 24",1 (4.2) n (%)
same,"Mouth ulceration, all-grade TRAE","40 mg QD, n = 24",5 (20.8) n (%)
same,"Nausea, Grade ≥ 3 TRAE","40 mg QD, n = 24",0 n (%)
same,"Nausea, all-grade TRAE","40 mg QD, n = 24",9 (37.5) n (%)
same,"Peripheral edema, Grade ≥ 3 TRAE","40 mg QD, n = 24",4 (16.7) n (%)
same,"Peripheral edema, all-grade TRAE","40 mg QD, n = 24",8 (33.3) n (%)
same,"Rash, Grade ≥ 3 TRAE","40 mg QD, n = 24",1 (4.2) n (%)
same,"Rash, all-grade TRAE","40 mg QD, n = 24",6 (25.0) n (%)
same,TRAEs leading to death,"40 mg QD, n = 24",0 n (%)
same,TRAEs leading to dose discontinuation,"40 mg QD, n = 24",2 (8.3) n (%)
same,TRAEs leading to dose interruption,"40 mg QD, n = 24",19 (79.2) n (%)
same,TRAEs leading to dose reduction,"40 mg QD, n = 24",5 (20.8) n (%)
same,TRAEs occurring in ≥ 10% of patients,"40 mg QD, n = 24",23 (95.8) n (%)
same,Treatment-related serious adverse events,"40 mg QD, n = 24",4 (16.7) n (%)
same,"Vomiting, all-grade TRAE","40 mg QD, n = 24",6 (25.0) n (%)
same,"Weight loss, all-grade TRAE","40 mg QD, n = 24",9 (37.5) n (%)
same,"White blood cell count decreased, Grade ≥ 3 TRAE","40 mg QD, n = 24",1 (4.2) n (%)
same,DLT rate,"40 mg dose level, 1 out of 6 DLT evaluable patients",16.7%
same,patients with DLT: grade 3 hyperglycemia,"40 mg, dose-escalation stage (19 patients)",1
same,patients with DLT: grade 3 hyperglycemia and grade 3 nausea,"60 mg, dose-escalation stage (19 patients)",2
same,"Blood glucose increased, Grade ≥ 3 TRAE","1–20 mg QD, n = 10",0 n (%)
same,"Decreased appetite, Grade ≥ 3 TRAE","1–20 mg QD, n = 10",0 n (%)
same,"Decreased appetite, all-grade TRAE","1–20 mg QD, n = 10",3 (30.0) n (%)
same,"Diabetic ketosis, Grade ≥ 3 TRAE","1–20 mg QD, n = 10",0 n (%)
same,"Diarrhea, Grade ≥ 3 TRAE","1–20 mg QD, n = 10",0 n (%)
same,"Diarrhea, all-grade TRAE","1–20 mg QD, n = 10",3 (30.0) n (%)
same,"Dizziness, Grade ≥ 3 TRAE","1–20 mg QD, n = 10",0 n (%)
same,"Electrocardiogram QT prolonged, Grade ≥ 3 TRAE","1–20 mg QD, n = 10",1 (10.0) n (%)
same,"Face oedema, Grade ≥ 3 TRAE","1–20 mg QD, n = 10",0 n (%)
same,"Facial edema, all-grade TRAE","1–20 mg QD, n = 10",0 n (%)
same,"Fatigue, Grade ≥ 3 TRAE","1–20 mg QD, n = 10",0 n (%)
same,"Fatigue, all-grade TRAE","1–20 mg QD, n = 10",1 (10.0) n (%)

# Reference: publication PMC9669016, “First-in-human phase Ia study of the PI3Kα inhibitor CYH33 in patients with solid tumors” (Nature Communications, 2022)
